“And” between values parts separate entries of the source, which are not always exact repeats. Identical values can stand only once.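 Grown in 96-well plates, cells were treated for 48 hours with each compound at five concentrations. Insufficient inhibition: endpoint recorded as highest concentration tested. GI50 marks 50% less growth. Definition used: TGI = concentration required for complete inhibition of growth.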
What was measured:
Assay in all cases: NCI tumour cell line growth inhibition, 48 h
[1] = test system: A498 renal
[2] = test system: U251 CNS
[3] = test system: CAKI-1 renal
[4] = test system: KM12 colon
[5] = test system: HT29 colon
[6] = test system: SNB-75 CNS
[7] = test system: HCT-15 colon
[8] = test system: OVCAR-4 ovarian
[9] = test system: OVCAR-8 ovarian
[10] = test system: UACC-62 melanoma

SMILES	GI50 [1]	TGI [1]	GI50 [2]	TGI [2]	GI50 [3]	TGI [3]	GI50 [4]	TGI [4]	GI50 [5]	TGI [5]	GI50 [6]	TGI [6]	GI50 [7]	TGI [7]	GI50 [8]	TGI [8]	GI50 [9]	TGI [9]	GI50 [10]	TGI [10]
CCC[CH2][Sn]1([CH2]CCC)[O]C(=O)c2ccc(N)cc2[O]1	0.278 µM	0.763 µM	0.471 µM	1.81 µM	0.119 µM	1.27 µM	1.24 µM	2.59 µM	1.33 µM	2.73 µM	0.116 µM	1.84 µM	0.46 µM	2.21 µM	1.29 µM	2.59 µM	0.909 µM	2.49 µM	0.364 µM	1.83 µM
C[C@]12CC[C@@H](OC(=O)N(CCCl)N=O)C[C@@H]1CC[C@@H]1[C@@H]2CC[C@]2(C)C(=O)CC[C@@H]12	1.68 µM	4.29 µM	0.851 µM	15.7 µM	1.67 µM	20.7 µM	2.81 µM	16.3 µM	3.26 µM	15.9 µM	2.74 µM	30.5 µM	12.1 µM	32.4 µM	14.9 µM	53.4 µM	7.21 µM	28.5 µM	1.46 µM	25.6 µM
COc1ccc(NC(=O)n2nc(/C=C\c3ccc(O)c(OC)c3)cc2/C=C\c2ccc(O)c(OC)c2)cc1	17.2 µM	56.4 µM	3.55 µM	20.9 µM	3.6 µM	> 100 µM	3.19 µM	20.7 µM	3.52 µM	11 µM	2.35 µM	16.3 µM	2.98 µM	> 100 µM	5.72 µM	90.7 µM	5.32 µM	59.9 µM	2.14 µM	6.91 µM
CC(=O)Nc1ccc(/C=C2/NC(=S)N(/C=C3\C(=O)Oc4ccccc4C3=O)C2=O)cc1		> 100 µM		> 100 µM		> 100 µM		> 100 µM		> 100 µM		63.1 µM		> 100 µM		> 100 µM		> 100 µM		> 100 µM
COC(=O)C(CC(=O)c1c[nH]c2ccccc12)c1c[nH]c2ccccc12 (stereo not drawn)		40 µM		50.4 µM		70.8 µM		> 10 µM		31.2 µM		58 µM		36.3 µM		40.2 µM		65 µM		> 10 µM
Clc1ccc2c(c1)C(N1CCNCC1)=Nc1ccccc1O2	3.1 µM	5.46 µM	1.51 µM	2.99 µM	2.2 µM	7.83 µM	1.73 µM	3.28 µM	1.72 µM	4.19 µM	1.13 µM	2.79 µM	3.26 µM	11.7 µM	2.45 µM	8.72 µM	1.86 µM	4 µM	1.63 µM	3.1 µM
CC1(C)C(=O)C=CC2(C)C1CC(O)C1(C)C2CCC2(C)C(c3ccoc3)OC(=O)C3OC321 (stereo not drawn)		28.8 µM		40.5 µM		31.4 µM		28.7 µM		33.7 µM		39.5 µM		23.6 µM		38.4 µM		26.8 µM		26.9 µM
COc1cc2ncnc3c2cc1OCCCCCN(C)Cc1ccc(Br)cc1N3	1.35 µM and 0.539 µM	17.3 µM and > 10 µM	34.3 µM and 5.33 µM	> 100 µM	0.288 µM and 0.375 µM	> 100 µM	13.2 µM and > 10 µM	> 100 µM	6.34 µM and 3.35 µM	> 100 µM	6.14 µM and 2.91 µM	64 µM and > 10 µM	0.885 µM and 0.975 µM	> 100 µM	2.57 µM and 1.34 µM	43.1 µM and > 10 µM	12 µM and 2.67 µM	> 100 µM	2.35 µM and 0.969 µM	> 100 µM
Oc1c(CN2CCCC2)cc(CSCc2ccccc2)c2cccnc12	2.26 µM	8.08 µM	0.789 µM	11.9 µM	0.0774 µM	1.47 µM	0.635 µM	11.9 µM	3.88 µM	14 µM	1.5 µM	15.9 µM	0.0612 µM	1.85 µM	0.456 µM	2.47 µM	0.462 µM	9.79 µM	0.363 µM	2.29 µM
O=C1C(Cl)=C(c2ccc([N+](=O)[O-])cc2)C(=O)c2c(O)cccc21		12.5 µM		2.22 µM		3.86 µM		3.63 µM		7.37 µM		7.13 µM		3.35 µM		4.62 µM		5.78 µM		1.98 µM
CC12CC=CCC1CCC1C2CCC2(C)C(c3ccc(=O)oc3)CCC12O (stereo not drawn)	0.0768 µM	0.54 µM	0.127 µM	0.337 µM	0.135 µM	0.448 µM	0.315 µM	1.55 µM	0.0633 µM	0.768 µM	0.0604 µM	0.302 µM	0.105 µM	0.458 µM	0.197 µM	0.641 µM	0.0944 µM	0.324 µM	0.233 µM	0.661 µM
COC(=O)C1Cc2c([nH]c3ccccc23)C(c2ccccc2O)N1Cc1ccccc1 (stereo not drawn)		37.8 µM		39.5 µM		34.5 µM		> 31.6 µM		> 46.4 µM		18.8 µM		> 46.4 µM		33.6 µM		> 46.4 µM		33.1 µM
CC1=C(/C=C/C(C)=C/C=C/C(C)=C/C=C/C=C(C)/C=C/C=C(C)/C=C/C2=C(C)C(=O)C(O)CC2(C)C)C(C)(C)CC(O)C1=O (stereo not drawn)		> 100 µM		> 100 µM		> 100 µM		> 100 µM		> 100 µM		> 100 µM		> 100 µM		> 100 µM		> 100 µM		> 100 µM
COc1cc(C2c3cc4c(cc3[C@@H](OCCN(C)C)C3COC(=O)[C@H]23)OCO4)cc(OC)c1O (stereo partly drawn)		0.713 µM		1.27 µM		1.33 µM		2.75 µM		2.43 µM		3.75 µM		3.12 µM		6.33 µM		2.17 µM		1.38 µM
CNCCNc1nc2ccccc2c2c(=O)c3cc(F)ccc3sc12	2.05 µM	6.96 µM	1.63 µM	3.18 µM	1.38 µM	2.77 µM	1.74 µM	3.25 µM	1.59 µM	3.2 µM	1.58 µM	5.6 µM	1.65 µM	3.26 µM	1.8 µM	3.66 µM	1.85 µM	3.84 µM	1.73 µM	3.18 µM
N=c1ccc2nc3c(cc(N)c4ccccc43)oc-2c1		0.78 µM	0.223 µM	0.664 µM	0.444 µM	2.32 µM	0.236 µM	0.845 µM	0.535 µM	1.7 µM	0.191 µM	0.654 µM	0.214 µM	1.13 µM	0.0919 µM	0.235 µM	0.457 µM	3.28 µM	0.197 µM	0.539 µM
NC(=S)N/N=C1\CCCC1C(O)(C(F)(F)Cl)C(F)(F)Cl (stereo not drawn)		> 10 µM		> 10 µM		> 10 µM		> 10 µM		> 10 µM		> 10 µM		> 10 µM		> 10 µM		> 10 µM		> 10 µM
CNCCNc1nc2ccccc2c2c(=O)c3cc(OC)ccc3sc12	2.12 µM	6.8 µM	1.5 µM	2.92 µM	1.5 µM	2.97 µM	1.8 µM	3.48 µM	1.52 µM	3.26 µM	1.28 µM	2.58 µM	1.39 µM	2.83 µM	1.68 µM	3.22 µM	1.91 µM	4.39 µM	1.69 µM	3.13 µM
Cc1c(C(=O)CC(=O)C(=O)Nc2cc(Cl)ccc2Cl)[n+](=O)c2ccccc2n1[O-]		> 100 µM		> 100 µM		> 100 µM		> 100 µM		> 100 µM		78.1 µM		90.2 µM		> 100 µM		> 100 µM		40.2 µM
O=C(N/N=C/c1ccc(Cl)cc1)c1[nH]c2ccc(Cl)cc2c1-c1ccccc1	15.4 µM	> 100 µM	0.255 µM	4.68 µM	0.185 µM	0.645 µM	0.181 µM	0.568 µM	0.122 µM	> 36 µM	1.02 µM	> 51.2 µM	0.255 µM		0.183 µM	> 79.3 µM	0.132 µM	32.6 µM	0.191 µM	> 52.5 µM
S=P(N1CCCC1)(N1CC1)N1CC1		> 100 µM		> 100 µM		> 100 µM		> 100 µM		> 100 µM		> 100 µM		> 100 µM		> 100 µM		> 100 µM		> 100 µM
O=C(O)c1cccc(/C=C/c2ccccc2)c1		> 100 µM		> 100 µM		> 100 µM		> 100 µM		> 100 µM		> 100 µM		> 100 µM		> 100 µM		> 100 µM		> 100 µM
Nc1nc(N)nc(CC(=O)O)n1		> 100 µM		> 100 µM		> 100 µM		> 100 µM		> 100 µM		> 100 µM		> 100 µM		> 100 µM		> 100 µM		> 100 µM
COc1cc(C2c3cc4c(cc3[C@@H](N(C)C)[C@H]3COC(=O)C23)OCO4)cc(OC)c1O (stereo partly drawn)		56 µM		> 100 µM		99 µM		> 100 µM		> 100 µM		> 100 µM		> 100 µM		> 100 µM		80.1 µM		> 100 µM
Cc1cc(=O)oc2cc(OC(=O)N(CCCl)CCCl)ccc12		> 100 µM		> 100 µM		> 100 µM		> 100 µM		> 100 µM		> 100 µM		> 100 µM		> 100 µM		> 100 µM		> 100 µM
COC(=O)c1ccc(C(=O)OC)c2nc3cc(C)ccc3nc12		> 100 µM		> 100 µM		> 100 µM		> 100 µM		> 100 µM		> 100 µM		> 100 µM		> 100 µM		> 100 µM		> 100 µM
Clc1ccc2ns[s+]c2c1		> 100 µM		> 100 µM		> 100 µM		> 100 µM		> 100 µM		> 100 µM		> 100 µM		> 100 µM		> 100 µM		> 100 µM
COc1cc(/C=C/c2ccc(OC)c(OC)c2OC)cc(OC)c1OC		> 73.9 µM		36.2 µM		> 96.4 µM		57.3 µM		> 63.9 µM		56.7 µM		> 57.2 µM		70.9 µM		> 87.1 µM		28.1 µM
